Like-named read-outs stand apart in the source and are kept apart here.
Experiments:
[1] = Stopped-flow Quin-2 fluorescence, Ca^2+ dissociation from / binding to S100A4 constructs (no target); conditions: single exponential fit, no target
Excerpt: In order to increase the signal-to-noise ratio of the Ca^2+ dissociation transients, we used Quin-2 as combined fluorescent indicator and high-affinity chelator.[19,20] These measurements confirmed that Ca^2+ dissociated from wild-type protein with a rate constant of 16 s^− 1 (Fig. 3a; cf. 20 s^− 1 for the tyrosine signal). Given the poor signal-to-noise ratio of the tyrosine signal, the difference is barely significant but may reflect the fact that the Quin-2 signal represents at least a two-step sequential reaction (Ca^2+ dissociation from S100AS4, followed by rapid binding to Quin-2).
Fig. 3 (a) Dissociation of Ca^2+ from wild-type S100A4 (black), E33Q mutant (blue), and D63N mutant (red), as monitored by Quin-2 fluorescence. […] The records for the mutants were vertically offset for clarity. (b) Ca^2+ binding to S100A4 as determined from the amplitude of the resolved transient (k ≈ 20 s^− 1) when 6.5 μM S100A4 was preincubated with various added [Ca^2+] and then mixed with 100 μM Quin-2. The amplitude was converted into a bound concentration from an independent calibration using the same Quin-2 solution and known free [Ca^2+]. […] While either model could account for the data, the measured stoichiometry from ITC (Table 1) favors the cooperative model.
(§1) Stopped-flow measurements were carried out using an SX18-MV apparatus (Applied Photophysics Ltd., Leatherhead, UK) with a dead time of 1.5 ms.[40] Records were generally captured on a logarithmic time base. Absorption (turbidity) measurements were usually recorded using a 10-mm pathlength, while fluorescence was recorded with a 2-mm pathlength for excitation and emission. The stated concentrations of components refer to the reaction chamber after mixing, unless otherwise indicated. Tyrosine fluorescence was excited at 280 nm, and the emission was collected through a UG11 bandpass filter plus a 305-nm longpass filter.[18] Fluorescein fluorescence was excited at 480 nm, and the emission was detected through a 515-nm longpass filter. Quin-2 fluorescence was measured by excitation at 336 nm, and emission was collected with a 455-nm longpass filter. For simultaneous recording of light scatter, a second channel was monitored through a UG11 filter. Rate constants were obtained by fitting to single-exponential or double-exponential functions using Kaleidagraph (Synergy Software) or Applied Photophysics Pro-Data software. Modeling of kinetic schemes was performed using Berkeley Madonna software.

[2] = Isothermal titration calorimetry of Ca^2+ binding to S100A4 constructs
Procedure: Fig. 2 ITC records for Ca^2+ binding to S100A4 constructs: (a) 75 μM wild type at 30 °C; (b) 75 μM wild type at 10 °C; (c) 75 μM E33Q construct at 30 °C; (d) 300 μM D63N construct at 30 °C. For mutant constructs data at 10 °C, see Fig. S1. All preparations were dialysed against the same buffer of 20 mM NaCl, 10 mM Hepes, and 2 mM DTT (pH 7.5).
ITC data were collected using a VP-ITC microcalorimeter (MicroCal Ltd., Northampton, MA) and analysed by fitting to a single-site binding equation or a two-site binding equation using MicroCal Origin software.

[3] = Stopped-flow tyrosine fluorescence, Ca^2+ dissociation from S100A4 constructs; assay type: binding
Procedure: as §1
Dissociation of Ca2+ from wild type S100A4 (black), Y19F mutant (blue) and Y75F mutant (red) monitored by tyrosine fluorescence. 13 M of each S100A4 construct plus 100 µM Ca2+ was mixed with 200 µM EGTA (reaction chamber concentrations) and the tyrosine fluorescence monitored. The buffer was 20 mM NaCl, 10 mM HEPES, 2 mM DTT at pH 7.5 and 20 °C. Fits to a single exponential function yielded rate constants of 20 s-1, 113 s-1 and 45 s-1 for wild-type, Y19F mutant and Y75F mutant respectively. (d) Dissociation of Ca2+ from wild type S100A4 (black), E33Q mutant (blue) and D63N mutant (red) monitored by tyrosine fluorescence. 13 M of each S100A4 construct plus 15 M Ca2+ was mixed with 200 M EGTA (reaction chamber concentrations) and the tyrosine fluorescence monitored. Fits to a single exponential function yielded rate constants of 22 s-1 and 49 s-1 for wild-type and E33Q construct respectively, while that […]
The records for the mutants were vertically offset for clarity in both […]

Δ10-S100A4 = molecular target: T1, Δ10-S100A4 (Homo sapiens, UniProt P26447); assay: NMR ^1H,^15N HSQC titration of Δ10-S100A4 with myosin peptides; assay type: binding
T1 construct: truncated Δ10-S100A4, which lacks 10 C-terminal residues; made in house; host or cells: Escherichia coli (M9 minimal medium, 15N labelling)

[4] = 10 °C and 30 °C, read-out: Kd for Ca^2+
[5] = 10 °C, 75 μM protein (D63N 300 μM), 20 mM NaCl, 10 mM Hepes, 2 mM DTT, pH 7.5
[6] = 30 °C, 75 μM protein (D63N 300 μM), 20 mM NaCl, 10 mM Hepes, 2 mM DTT, pH 7.5
[7] = first site, Ca^2+ binding, 30 °C, 75 μM protein (D63N 300 μM), 20 mM NaCl, 10 mM Hepes, 2 mM DTT, pH 7.5, read-out: K1d
[8] = first site, 10 °C, wild type and E33Q cooperative, read-out: K1d
[9] = 13 μM S100A4 + 100 μM Ca^2+ mixed with 200 μM EGTA, 20 mM NaCl, 10 mM Hepes, 2 mM DTT, pH 7.5, 20 °C

T1 sequence (P26447 1-91 limits assumed, stated change not applied): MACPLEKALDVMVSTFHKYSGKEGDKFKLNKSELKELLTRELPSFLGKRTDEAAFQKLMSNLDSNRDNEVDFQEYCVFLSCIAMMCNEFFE

Substance | Ca^2+ dissociation rate constant (Quin-2) [1] [s^− 1] | Kd [2, 4] [µM] | n1 (Ca^2+ per monomer) [2, 5] [Ca^2+ per monomer] | n1 (Ca^2+ per monomer) [2, 6] [Ca^2+ per monomer] | Kd [2, 7] [µM] | Kd [2, 8] [µM] | Ca^2+ dissociation rate constant (tyrosine) [3, 9] [s^− 1] | also measured
D63N: S100A4 mutant compromised in the EF2 Ca^2+ binding loop | 500 | 65 to 70 | 0.44 ± 0.01 | 0.54 ± 0.01 | 68 ± 1 | 65 ± 3 |  | reduction in Ca^2+ affinity ([2]; compromised EF2 site, as suggested by ITC): 30 -fold
E33Q: S100A4 mutant compromised in the EF1 Ca^2+ binding loop | 35 | 1 to 10 | 0.96 ± 0.09 | 0.33 ± 0.03 | 10.9 ± 1.9 | ~1 |  | Ca^2+ dissociation rate constant (tyrosine) ([3]; 13 μM S100A4 + 15 μM Ca^2+ mixed with 200 μM EGTA): 49 s^− 1
M15^C: myosin peptide G1924-G1938, acetylated N-terminus, amidated C-terminus (Ac-GDLPFVVPRRMARKG-NH2) |  |  |  |  |  |  |  | NMR exchange regime (Δ10-S100A4; 0.2 mM Δ10-S100A4, Ca^2+, 35 °C): fast exchange; affinity by NMR (Δ10-S100A4; 0.2 mM Δ10-S100A4, up to 9-fold molar excess of peptide): too low to be measured by NMR
Y19F: S100A4 mutant, tyrosine 19 to phenylalanine |  |  |  |  |  |  | 113 | 
Y75F: S100A4 mutant, tyrosine 75 to phenylalanine |  |  |  |  |  |  | 45 | 
Δ10-S100A4: truncated S100A4, lacks 10 C-terminal residues |  |  |  |  |  |  |  | interaction in the absence of Ca^2+ (Δ10-S100A4; absence of Ca^2+): No interaction was observed

Reference: paper PMC3025356, “Mechanism of the Ca^2+-Dependent Interaction between S100A4 and Tail Fragments of Nonmuscle Myosin Heavy Chain IIA” (Journal of Molecular Biology, 2011)
